Key:
[1] = biological target: T1, C377 of PPP2R1A (Homo sapiens, UniProt P30153); experiment: Competitive isoTOP-ABPP in 231MFP proteomes in vitro; type: binding
T1 construct: pre-incubating withaferin A (10 μM) for 30 min in 231MFP breast cancer cell proteomes; endogenous in cells; host or cells: 231MFP breast cancer cells (MDA-MB-231 derived)
Description: IsoTOP-ABPP studies were performed using the methods described in “Nature 534(7608), 570-574 (2016)” by Backus K. M., et al. and “Nature 468(7325), 790-795 (2010)” by Weerapana E., et al. Proteome samples diluted in PBS were treated with Withaferin A or vehicle for 30 minutes at 37° C. Then, IAyne (iodoacetamide-alkyne) labeling was performed for 1 hour at room temperature. CuAAC was used by sequential addition of tris(2-carboxyethyl)phosphine (1 mM), tris[(1-benzyl-1H-1,2,3-triazol-4-yl)methyl]amine (34 μM), copper (II) sulfate (1 mM), and biotin-linker-azide where the linker was functionalized with a TEV protease recognition sequence along with an isotopically light or heavy valine for treatment of control or treated proteome, respectively. After click reactions, proteomes were precipitated by centrifugation at 6500×g, washed in ice-cold methanol, combined in a 1:1 control/treated ratio, washed again, then denatured and re-solubilized by heating in 1.2% SDS/PBS to 80° C. for 5 minutes. Insoluble components were precipitated by centrifugation at 6500×g and soluble proteome was diluted in 0.2% SDS/PBS (5 ml). Labeled proteins were bound to avidin-agarose beads (170 μl re-suspended beads/sample) while rotating overnight at 4° C. Bead-linked proteins were enriched by washing three times each in PBS and water, then re-suspended in urea/PBS (6 M), reduced in TCEP (1 mM), alkylated with iodoacetamide (18 mM), then washed and re-suspended in urea/PBS (2 M), and finally trypsinized overnight with 0.5 μg/μl sequencing grade trypsin. Tryptic peptides were eluted off. Beads were washed in PBS (3 times) and water (3 times), washed in TEV buffer solution (water, TEV buffer, 100 μM dithiothreitol), and re-suspended in buffer with Ac-TEV protease and then incubated overnight. Peptides were diluted in water, acidified with formic acid (1.2 M), and prepared for analysis.
Peptides from all proteomic experiments were pressure-loaded onto an Agilent 600 series RP-HPLC system equipped with a capillary tubing (250 mm) packed with Aqua C18 reverse-phase resin (4 cm). The system was previously equilibrated with a gradient (0% B to 100% B over 10 minutes, 100% B for 5 minutes, then 0% B for 5 minutes; buffer A: 95:5 water:acetonitrile, 0.1% formic acid; buffer B: 80:20 acetonitrile:water, 0.1% formic acid). The samples were then attached using a MicroTee PEEK 360 μm fitting to a laser pulled column (13 cm) packed with Aqua C18 reverse-phase resin (10 cm) and strong-cation exchange resin (3 cm) for isoTOP-ABPP studies. Samples were analyzed using an Q Exactive Plus mass spectrometer using a 5-step Multidimensional Protein Identification Technology (MudPIT) program. […]

[2] = tested on: siPPP2R1A 231MFP cells; experiment: Proliferation of siPPP2R1A knockdown 231MFP cells; type: cell-based; settings: 48 h after 48 h siRNA transfection
From the text: PPP2R1A was transiently knocked down with siRNA using previously described methods (Benjamin et al., 2014). siRNA for a scrambled RNA oligonucleotide control and pooled RNA oligonucleotides targeting PPP2R1A were purchased from Dharmacon.

[3] = tested on: 231MFP breast cancer cells; experiment: 231MFP cell proliferation (Hoechst staining); type: cell-based; settings: 48 h; for cell proliferation: 231MFP
[4] = biological target: T2, pure human PPP2R1A protein (Homo sapiens, UniProt P30153); experiment: Gel-based ABPP, competition against IAyne labeling; type: binding; settings: for competition against IAyne labeling of pure human PPP2R1A: 30 min pre-incubation; for IC50: 30 min at 37° C. pre-treatment, IAyne labeling
T2 construct: purchased Origene
T2 sequence (P30153 whole entry): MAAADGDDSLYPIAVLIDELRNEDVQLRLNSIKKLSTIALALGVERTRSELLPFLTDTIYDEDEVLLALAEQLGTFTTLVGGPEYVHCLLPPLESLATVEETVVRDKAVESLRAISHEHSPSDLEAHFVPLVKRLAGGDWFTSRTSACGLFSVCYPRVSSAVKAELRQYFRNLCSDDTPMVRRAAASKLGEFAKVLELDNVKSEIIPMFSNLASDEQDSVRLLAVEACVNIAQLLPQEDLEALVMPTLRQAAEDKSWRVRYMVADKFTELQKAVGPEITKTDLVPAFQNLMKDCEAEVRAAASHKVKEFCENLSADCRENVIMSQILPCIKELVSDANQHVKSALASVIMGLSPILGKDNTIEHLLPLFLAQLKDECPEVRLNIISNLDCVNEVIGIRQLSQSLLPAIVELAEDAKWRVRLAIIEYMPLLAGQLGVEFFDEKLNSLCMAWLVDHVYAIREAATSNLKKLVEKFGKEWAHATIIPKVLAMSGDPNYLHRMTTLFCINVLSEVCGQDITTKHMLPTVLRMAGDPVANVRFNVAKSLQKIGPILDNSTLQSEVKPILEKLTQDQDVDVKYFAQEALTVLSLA
Description: Gel-based ABPP methods were performed using the methods described in “Chem Biol 22(10), 1394-1405 (2015)” by Medina-Cleghorn D., et al. Recombinant pure human proteins were purchased from Origene. Pure proteins were pre-treated with DMSO, Withaferin A, or acrylamide or chloroacetamide compounds (e.g., DKM 2-90 or JNS 1-40) for 30 minutes at 37° C. in an incubation volume of PBS (50 μL), and were subsequently treated with IAyne (10 μM final concentration) for 30 minutes at room temperature. CuAAC was performed to append rhodamine-azide onto IAyne probe-labeled proteins. The samples were separated by SDS/PAGE and scanned using a ChemiDoc MP. Inhibition of target labeling was assessed by densitometry using ImageStudio Light software.

T1 sequence (P30153 whole entry): as above

Compound | isotopically light to heavy ratio, C377 of PPP2R1A ([1]; 10 μM, 30 min pre-incubation, IAyne 100 μM) | anti-proliferative effect in siPPP2R1A versus siControl cells ([2]; 10 μM) | cell proliferation ([3]; 10 μM) | EC50 ([3]; serum-containing media, Hoechst staining, read-out: 50% effective concentration (EC50), impairment of 231MFP cell proliferation) [µM] | competition against IAyne labeling of pure human PPP2R1A ([4]; gel-based ABPP) | isotopically light to heavy ratio, C377 of PPP2R1A ([1]; 100 μM, 30 min pre-treatment) | anti-proliferative effect in siPPP2R1A versus siControl cells ([2]; 100 μM) | cell proliferation ([3]; 100 μM) | IC50 [4] [µM] | improved potency towards PPP2R1A compared to DKM 2-90 ([4]; gel-based ABPP) [fold]
CC1=C(CO)C(=O)O[C@@H]([C@@H](C)[C@H]2CC[C@H]3[C@@H]4C[C@H]5O[C@]56[C@@H](O)C=CC(=O)[C@]6(C)[C@H]4CC[C@]23C)C1 [withaferin A, reference compound] | > 5 | significantly attenuated the anti-proliferative effects | impairs | 7.5 | full competition | – | – | – | – | –
O=C(CCl)Nc1ccc2c(c1)OCCO2 [DKM 2-90, 2-Chloro-N-(2,3-dihydrobenzo[β][1,4]dioxin-6-yl)acetamide] | – | – | – | – | confirming the competition | quite selectively targeted C377 of PPP2R1A | attenuation | lead compounds | 10 | –
O=C(CCl)N(Cc1ccccc1)c1ccc2c(c1)OCCO2 [JNS 1-40, N-benzyl-2-chloro-N-(2,3-dihydrobenzo[b][1,4]dioxin-6-yl)acetamide] | – | – | – | – | – | > 5 | attenuated | impaired | 0.63 | 16

— US20200054651A1, “COMPOSITIONS AND METHODS FOR MODULATING PPP2R1A” (The Regents of the University of California, priority 2017, published 2020)
